Source: patent publication US20100093719A1, “PHARMACOKINETICALLY IMPROVED COMPOUNDS” (SURFACE LOGIX, INC., priority 2005, published 2010)
In brackets after ≈: the same amount, converted by molar mass. Like-named read-outs stand apart in the source and are kept apart here.

Legend:
PDE5 = PDE5 (Homo sapiens, UniProt O76074); assay: Phosphodiesterase inhibition PDE-5 human; type: biochemical
Method: (§1) Phosphodiesterase inhibition was determined by methods known to one of skill in the art.

Caco-2 = Caco-2 permeability; type: in vitro ADME
Description: Several model systems are available, employing monolayers of various cell types, for evaluation of active transport of pharmaceutically active substances. For example, monolayers of Caco-2 intestinal epithelial cells can be used to evaluate active transport of substances between the intestine and the bloodstream. When plated on a surface which allows the flow of material from apical to basolateral and vice versa, such cells form a biological membrane which can be used to simulate physiological absorption and bio-availability. In another example, mouse brain capillary endothelial cell (MBEC) lines have been established to evaluate active transport in and out of the central nervous system. Another example of such cells is HT29 human colon carcinoma cells. Further, monolayers expressing particular transporter proteins can be established using transfected cells. For example, Sasaki et al (2002) J. Biol. Chem. 8:6497 used a double-transfected Madin-Darby canine kidney cell monolayer to study transport of organic anions.

PDE-3 = assay: Phosphodiesterase inhibition PDE-3; type: biochemical
Method: as §1

PDE-1 = assay: Phosphodiesterase inhibition PDE-1; type: biochemical
Method: as §1

Cytotox GC50 = type: cell-based
PDE-6 = assay: Phosphodiesterase inhibition PDE-6; type: biochemical
Method: as §1

Non-specific binding = type: in vitro ADME
PDE-5 = PDE-5 (Bos taurus, UniProt Q28156); assay: Phosphodiesterase inhibition PDE-5 bovine; type: biochemical
Method: as §1

Cytotox LC50 = conditions: read-out: Cytotox LC50 Acute
Solubility = type: physicochemical
RLM stability T1/2 = type: in vitro ADME; conditions: rat, liver microsomes
PAMPA permeability = type: in vitro ADME
[1] = pH 2.7, aqueous buffer, read-out: Solubility pH 2.7
[2] = pH 7.4, aqueous buffer, read-out: Solubility pH 7.4

| Structure (SMILES) | IC50 (PDE5) | Caco-2 AtoB (Caco-2) | Caco-2 BtoA (Caco-2) | CC50 (in vitro) | IC50 (PDE-3) | IC50 (PDE-1) | Cytotox GC50 (Cytotox GC50) | IC50 (PDE-6) | Non-Spec Binding (Non-specific binding) | IC50 (PDE-5) | CC50 (Cytotox LC50) | solubility (Solubility; [1]) | solubility (Solubility; [2]) | half-life (RLM stability T1/2) | PAMPA Hex (PAMPA permeability) | PAMPA Lec (PAMPA permeability) |
| --- | --- | --- | --- | --- | --- | --- | --- | --- | --- | --- | --- | --- | --- | --- | --- | --- |
| CCCc1nc(C)c2c(=O)[nH]c(-c3cc(S(=O)(=O)N(C)CC(=O)N(C)C)ccc3OCC)nn12 [Compound 1] | 0.097 nM | 17.46 10^−6 | 48.88 10^−6 | 75000 nM | 986 nM | 25 nM | 76700 nM | 3.5 nM | 11.07% | 0.122 nM | 100000 nM | > 100 µM | 96.1 µM (≈ 47.2 µg/mL) | 22 min | 5.49 10^−6 | 0.128 10^−6 |
| CCCc1nc(C)c2c(=O)[nH]c(-c3cc(S(=O)(=O)N(C)[C@H](C)C(=O)N(C)C)ccc3OCC)nn12 [Compound 2] | 0.0395 nM | 33.33 10^−6 | 61.33 10^−6 | ≥ 100000 nM | 507 nM | 13 nM | 94600 nM | 0.605 nM | 20.7% | 0.101 nM | 100000 nM | > 100 µM | > 100 µM | 32.6 min | 18.2 10^−6 |  |
| CCCc1nc(C)c2c(=O)[nH]c(-c3cc(S(=O)(=O)N(C)C(C)(C)C(=O)N(C)C)ccc3OCC)nn12 [Compound 3] | 0.16 nM | 28.85 10^−6 | 58.45 10^−6 | ≥ 100000 nM | 412 nM | 10 nM | 100000 nM | 1.7 nM | 14.3% | 0.138 nM | 100000 nM | > 100 µM | > 100 µM | 72.7 min | 9.11 10^−6 |  |
| CCCc1nc(C)c2c(=O)[nH]c(-c3cc(S(=O)(=O)N(C)CC(=O)N(C)CC(=O)N(C)C)ccc3OCC)nn12 [Compound 4] | 0.11 nM | 2.97 10^−6 | 25.95 10^−6 |  |  |  |  |  | 7% | 0.084 nM |  | 112 µM (≈ 62.9 µg/mL) | 109 µM (≈ 61.2 µg/mL) | 64 min | 0.47 10^−6 | 0.056 10^−6 |
| CCCc1nc(C)c2c(=O)[nH]c(-c3cc(S(=O)(=O)N4CCCC4C(=O)N(C)C)ccc3OCC)nn12 (centres unmarked) [Compound 5] | 2.3 nM | 19.4 10^−6 | 60.2 10^−6 |  |  |  |  |  |  | 1.6 nM |  | 100 µM (≈ 51.7 µg/mL) | 93 µM (≈ 48 µg/mL) | 30.1 min | 13.18 10^−6 |  |
| CCCc1nc(C)c2c(=O)[nH]c(-c3cc(S(=O)(=O)N(C)CC(=O)N4CCOCC4)ccc3OCC)nn12 [Compound 6] | 0.68 nM | 11.16 10^−6 | 55.15 10^−6 |  |  |  |  |  | 7.3% |  |  | > 100 µM | > 100 µM |  | 0.78 10^−6 |  |
| CCCc1nc(C)c2c(=O)[nH]c(-c3cc(S(=O)(=O)N(C)CC(=O)N4CCN(C)CC4)ccc3OCC)nn12 [Compound 7] | 0.535 nM | 4.35 10^−6 | 35.58 10^−6 |  |  |  |  |  | 2.6% |  |  | > 100 µM | > 100 µM |  | 0.18 10^−6 |  |
| CCCc1nc(C)c2c(=O)[nH]c(-c3cc(S(=O)(=O)N(C)CC(=O)N(CC)CC)ccc3OCC)nn12 [Compound 8] | 0.78 nM | 42.03 10^−6 | 77.41 10^−6 |  |  |  |  |  | 19% |  |  | > 100 µM | > 100 µM | 15 min | 21.81 10^−6 |  |
| CCCc1nc(C)c2c(=O)[nH]c(-c3cc(S(=O)(=O)N(C)CC(=O)N(C)CCN(C)C)ccc3OCC)nn12 [Compound 9] | 1.5 nM | 2.33 10^−6 | 11.31 10^−6 |  |  |  |  |  | 9.8% |  |  | > 100 µM | > 100 µM |  | 0.03 10^−6 |  |
| CCCc1nc(C)c2c(=O)[nH]c(-c3cc(S(=O)(=O)N(CC)CC(=O)N(CC)CC)ccc3OCC)nn12 [Compound 10] | 0.32 nM |  |  |  |  |  |  |  |  |  |  | 77.9 µM (≈ 41.5 µg/mL) | 78.5 µM (≈ 41.8 µg/mL) |  | 67.04 10^−6 |  |
| CCCc1nc(C)c2c(=O)[nH]c(-c3cc(S(=O)(=O)N(C)[C@@H](C)C(=O)N(C)C)ccc3OCC)nn12 [Compound 12] | 0.298 nM | 33.39 10^−6 | 50.43 10^−6 | ≥ 100000 nM |  |  | 99300 nM |  | 30.7% |  | 100000 nM | 96 µM (≈ 48.4 µg/mL) | 100 µM (≈ 50.5 µg/mL) | 32.2 min | 13.93 10^−6 |  |
| CCCc1nc(C)c2c(=O)[nH]c(-c3cc(S(=O)(=O)N(C)[C@@H](C)C(=O)NC)ccc3OCC)nn12 [Compound 13] | 0.17 nM |  |  | ≥ 100000 nM |  |  | 94000 nM |  |  |  |  | 69.4 µM (≈ 34 µg/mL) | 74.6 µM (≈ 36.6 µg/mL) |  | 0.42 10^−6 |  |
| CCCc1nc(C)c2c(=O)[nH]c(-c3cc(S(=O)(=O)N(C)[C@H](C)C(=O)NC)ccc3OCC)nn12 [Compound 14] | 0.35 nM |  |  | ≥ 100000 nM |  |  | 88000 nM |  |  |  |  | 62.6 µM (≈ 30.7 µg/mL) | 64 µM (≈ 31.4 µg/mL) |  | 0.47 10^−6 |  |
| CCCc1nc(C)c2c(=O)[nH]c(-c3cc(S(=O)(=O)N(C)C(C)(C)C(=O)NC)ccc3OCC)nn12 [Compound 15] | 0.256 nM | 6.8 10^−6 | 34.9 10^−6 | ≥ 100000 nM |  |  | 95000 nM |  |  |  |  |  |  |  | 0.25 10^−6 |  |
| CCCc1nc(C)c2c(=O)[nH]c(-c3cc(S(=O)(=O)N(C)C4(C(=O)N(C)C)CC4)ccc3OCC)nn12 [Compound 16] | 0.42 nM |  |  | ≥ 100000 nM |  |  | 100000 nM |  |  |  |  | 74.7 µM (≈ 38.6 µg/mL) | 82.5 µM (≈ 42.6 µg/mL) |  | 3.41 10^−6 |  |
| CCCc1nc(C)c2c(=O)[nH]c(-c3cc(S(=O)(=O)N[C@@H](C)C(=O)N(C)C)ccc3OCC)nn12 [Compound 17] | 0.66 nM |  |  | ≥ 100000 nM |  |  | 100000 nM |  |  |  |  | 70 µM (≈ 34.4 µg/mL) | 78.4 µM (≈ 38.5 µg/mL) |  | 0.26 10^−6 |  |
| CCCc1nc(C)c2c(=O)[nH]c(-c3cc(S(=O)(=O)N[C@H](C)C(=O)N(C)C)ccc3OCC)nn12 [Compound 18] | 0.36 nM |  |  | ≥ 100000 nM |  |  | 100000 nM |  |  |  |  | 70.3 µM (≈ 34.5 µg/mL) | 75.8 µM (≈ 37.2 µg/mL) |  | 0.18 10^−6 |  |
| CCCc1nc(C)c2c(=O)[nH]c(-c3cc(S(=O)(=O)NC(C)(C)C(=O)N(C)C)ccc3OCC)nn12 [Compound 19] | 0.193 nM | 2.43 10^−6 | 33 10^−6 | ≥ 100000 nM |  |  | 100000 nM |  |  |  |  | > 100 µM | 7.1 µM (≈ 3.58 µg/mL) |  | 0.17 10^−6 |  |
| CCCc1nc(C)c2c(=O)[nH]c(-c3cc(S(=O)(=O)N(C)CC(=O)NC)ccc3OCC)nn12 [Compound 21] | 0.25 nM | 5.15 10^−6 | 31.45 10^−6 |  |  |  |  |  |  |  |  | > 100 µM | > 100 µM |  | 0.24 10^−6 |  |
